Data on 5 molecules can be found in patent US20110306554A1, “PEPTIDE CAPABLE OF BINDING TO IMMUNOGLOBULIN” (priority 2009, published 2011).

Non-standard residues stand in square brackets, D forms with d. Residues, ends and D or L forms follow the SMILES beside them. No end group written: not given here.

The test system of data set [1] is rat collagen-arthritis model. Put plainly: Arthritis suppressing effects on rat collagen-arthritis model. Type of data set: in vivo, rats. The method, then: A rat collagen-arthritis model was used to examine arthritis suppressing effects of a peptide, referred to as peptide R13.
Female Lewis rats were primed with 500 μg of type II bovine-derived collagen and boosted with 100 μg of the same collagen at 7 and 14 days post priming, to induce collagen arthritis. Peptide R13, a scramble peptide (dYdPdYGdFdL), or methotrexate was administered once a day for a period of 25 consecutive days from 12 days after arthritis was fully developed, and arthritis suppressing effect was examined in terms of clinical score. Methotrexate was administered at a dose of 0.15 mg/kg as a control drug.
The required amount was calculated for each peptide, based on the animal weight. Physiological saline was gradually added to prepare suspensions, to make concentrations of 100 and 10 mg/ml.
The clinical score of each limb of the extremities in all cases was observed every third day from day 12, on which arthritis was developed, up to day 36, with day 0 being the day of priming with type II bovine-derived collagen. Observations were according to the following criteria, with the total score for the extremities being set to a maximum of 12. […]

The subject of data set [2] is binding between human C1q protein and human immunoglobulin (IgG). Put plainly: Inhibition of binding between C1q and immunoglobulin (C1q spotted on nitrocellulose membrane, ALP-labeled IgG). The note with it: peptide concentration 500 μg/ml, 400 ng human C1q per spot. From the text:
Peptides were synthesized by GL Biochem (Shanghai), which have the following amino acid sequences: the amino acid sequence depicted in SEQ ID NO: 2 (peptide R2); a shorter amino acid sequence than this peptide, PGLYYF (SEQ ID NO: 1) (peptide R1); and amino acid sequences including the amino acid sequence depicted in SEQ ID NO: 2, SGKFTCKVPGLYYFT (SEQ ID NO: 3) (peptide R3), FTCKVPGLYYFTYHA (SEQ ID NO: 4) (peptide R4), STGKFTCKVPGLYYF (SEQ ID NO: 5) (peptide R5), and CKVPGLYYFVYHASH (SEQ ID NO: 7) (peptide R6). Each peptide was dissolved in DMSO to make a concentration of 10 mg/ml and stored.
Human C1q protein (Carbiochem) was dissolved in 10 mM HEPES, 300 mM NaCl, 40% glycerol (pH 7.2) to prepare a 200 μg/ml solution of human C1q protein. The solution of human C1q protein was spotted at a volume of 2 μl (400 ng) per spot onto a nitrocellulose membrane of a size of 5 mm by 15 mm (Hybond C; Amersham), which was then air-dried at room temperature for about one hour. The nitrocellulose membrane was soaked in TBS, incubated for 5 minutes, and blocked at room temperature for one hour using TBS (20 mM Tris-HCl, pH 7.5, 150 mM NaCl) containing 5% of a blocking agent (Amersham ECL blocking reagent; GE Healthcare). […]

For data set [3], the system named is type III allergic (Arthus) reaction-induced rats. In words: Immune-complex disease suppression in type III allergic (Arthus) reaction-induced rats, Part 2. Format: in vivo. The method, then: Using forty-five 7-week-old male Slc:Wistar rats, examinations were made on peptides R13 and R19, in two series of examinations, each using a different method of administration (intraperitoneal administration and tail vein administration). Acclimation was carried out by giving normal solid chow CRF-1 for a period of 6 or 8 days. The back of the animals was shaved on the day prior to administration, and a mixed solution of OVA and Evans blue dye was administered into the tail vein on the day of administration. Each peptide solution was administered intraperitoneally or into the tail vein 30 minutes or 50 minutes after the administration of the mixed solution of OVA and Evans blue dye, respectively. For intracutaneous administration of an anti-OVA solution, […] was intracutaneously administered in the back of animals at a dose of 0.1 ml/site 30 minutes or 10 minutes after the administration of the tested substance in the case of intraperitoneal or intravenous administration, respectively, so as to generate a local Arthus reaction. After the reaction was allowed to be generated for 4 hours, the animals were euthanized, the blood was removed thoroughly, and then the dorsal skin was exfoliated. The Arthus reaction sites on the exfoliated skin were punched out, and the Evans blue dye was extracted from the punched skin overnight. The amount of dye leakage was quantified by measuring absorbance for the Evans blue dye with a spectrophotometer and using a calibration curve.
A suspension was prepared by placing a predetermined amount of hydrocortisone into a mortar, grinding it with pestle, and then adding physiological saline to make the final concentration of 10 mg/ml.
A predetermined amount of each peptide (peptides R13 and R19) was dissolved in physiological saline to make a 20 mg/ml solution. A 2 mg/ml solution was prepared by diluting the 20 mg/ml solution 10-fold with physiological saline. A 5 mg/ml solution was prepared by dissolving each peptide in a predetermined amount in physiological saline to make a prepared solution.
A mixed solution of OVA and Evans blue dye was administered into the tail vein at a dose of 2 ml/kg. Each peptide solution was administered intraperitoneally or into the tail vein 30 minutes or 50 minutes after the administration of the mixed solution of OVA and Evans blue dye, respectively. […]
Several cuttings were made in the skin strips that were punched out with a punch. […] The amount of dye leakage was calculated from a calibration curve of known amounts of the dye.
The mean value (mean)±standard deviation (SD) for each group was calculated with body-weight measurements and amounts of dye leakage. […]

Data set [4] deals with Monoclonal antibody cocktail-induced arthritis mice. In words: Arthritis suppressing effects on arthritis-induced mice, Part 4. Type of data set: in vivo. The note with it: intraperitoneal 100 mg/kg once a day from day 4; methotrexate 0.1 mg/kg. The procedure:
Monoclonal antibody cocktail-induced arthritis mice were used to examine arthritis suppressing effects of peptides which are indicated as R13 in the section (3) in Example 2 and as R19 and R21 in the section (4) in Example 2. Arthritis was caused by intravenous administration of 2 mg/mouse of an arthritis-inducing monoclonal antibody cocktail and three days later, intraperitoneal administration of 50 μg/mouse of LPS. The peptides […] days from four days after the administration of the arthritis-inducing monoclonal antibody cocktail, and arthritis suppressing effect was examined in terms of clinical score and hind-limb volume determination.
The required amount was calculated for each peptide, based on the animal weight. […]
Measurement of body weight of animals was made on days 0, 3, 6, 9, 12, and 14 during the study period, with day 0 being the day of administration of the arthritis-inducing monoclonal antibody cocktail. Observation of general condition was made on a daily basis. […]
Results of examinations were expressed by mean value±standard error and analyzed using EXSAS (Version 7.1.6, Arm Systex Co., Ltd.). […] Quantitative data, such as body weights and leg volumes, were subjected to Bartlett's test, followed by Dunnett's multiple comparison test when the variance was uniform or Steel's multiple comparison test when the variance was not uniform.

Setting [5] is: tail vein administration, 10 mg/kg.

On to `CC(C)C[C@@H](NC(=O)CNC(=O)[C@H]1CCCN1)C(=O)N[C@H](Cc1ccc(O)cc1)C(=O)N[C@H](Cc1ccc(O)cc1)C(=O)N[C@H](Cc1ccccc1)C(=O)O` [R13, dPGdLdYdYdF] (H-[dP]G[dL][dY][dY][dF]-OH), for which the “abnormalities in general condition and effects on body weight” value in data set [1] (100 and 10 mg/kg) was “abnormalities in general condition and effects on body weight were not observed”. Consider “CKAPGLYYF (Immunoglobulin binding peptide) [R10]”, for which, in data set [2], the “inhibition of the binding between C1q and immunoglobulin” value is “inhibit the binding”. “STAKFTCKVPGLYYF (Immunoglobulin binding peptide) [R11]”: the “inhibition of the binding between C1q and immunoglobulin” value in data set [2] was “inhibit the binding”. For “dSdKdVdPGdLdYdYdF ([dS][dK][dV][dP]G[dL][dY][dY][dF]) [R19]”, the “suppression (decrease of dye leakage) compared to negative control” value in data set [3] (intraperitoneal administration, 100 mg/kg) is 50%; in data set [3] (setting [5]) it was “about 50%”. In addition, the “suppression effect (dye leakage) compared to negative control” value in data set [3] (intraperitoneal administration, 10 or 100 mg/kg) is listed as “suppressed”; in data set [3] (setting [5]), “suppressed”. For the same molecule, the “arthritis-suppressing effect (clinical score) compared with methotrexate” value in data set [4] was “arthritis-suppressing effect comparable to or greater than that of methotrexate”. On to “dYdPdYGdFdL [scramble peptide, reference compound]”, for which, in data set [1] (negative control peptide, once a day, 25 consecutive days), the “suppression effect (clinical score)” value was “did not exhibit any suppression effects”.
